Assay results published in ChEMBL document CHEMBL1201862, “PubChem BioAssay data set” (2004).
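Tested at 5 concentrations; 48 h exposure; 96-well plates; endpoints linearly interpolated, else capped at highest concentration. The concentration for 50% growth inhibition is given as GI50.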 Activity calls are given as the source filed them. Rule as the data show it: active = GI50 up to about 1.1 µM and inactive = higher.

How the values were obtained:
Experiment in all cases: NCI tumour cell line growth inhibition, 48 h
[1] = system: A549
[2] = system: ACHN
[3] = system: CCRF-CEM
[4] = system: LOX IMVI
[5] = system: M14
[6] = system: NCI-H460
[7] = system: OVCAR-4
[8] = system: RXF 393
[9] = system: SK-MEL-28
[10] = system: SK-MEL-5
[11] = system: SK-OV-3
[12] = system: SNB-75
[13] = system: U-251
[14] = system: CAKI-1
[15] = system: HCC 2998
[16] = system: HCT-15
[17] = system: Malme-3M
[18] = system: SN12C

SMILES	GI50 [1]	GI50 [2]	GI50 [3]	GI50 [4]	GI50 [5]	GI50 [6]	GI50 [7]	GI50 [8]	GI50 [9]	GI50 [10]	GI50 [11]	GI50 [12]	GI50 [13]	GI50 [14]	GI50 [15]	GI50 [16]	GI50 [17]	GI50 [18]
O=C1C=C(c2[nH]c3ccccc3c2C2=CC(=O)c3ccccc3C2=O)C(=O)c2ccccc21	65.3 µM (inactive)	44.9 µM (inactive)	16.8 µM (inactive)	22.1 µM (inactive)	68.7 µM (inactive)	35.6 µM (inactive)	33.7 µM (inactive)	39.7 µM (inactive)	57 µM (inactive)	31.7 µM (inactive)	54.1 µM (inactive)	26 µM (inactive)	32.8 µM (inactive)	–	–	–	–	–
CN(C)CCC(O)(c1ccccc1)C(O)(CCN(C)C)c1ccccc1 (centres undefined)	> 100 µM (inactive)	> 100 µM (inactive)	> 100 µM (inactive)	–	17.4 µM (inactive)	> 100 µM (inactive)	> 100 µM (inactive)	–	> 100 µM (inactive)	38.5 µM (inactive)	> 100 µM (inactive)	33.1 µM (inactive)	> 100 µM (inactive)	> 100 µM (inactive)	> 100 µM (inactive)	> 100 µM	17.7 µM (inactive)	> 100 µM (inactive)
OCCCC(O)(c1ccccc1)c1ccccc1	> 100 µM (inactive)	> 100 µM (inactive)	> 100 µM (inactive)	> 100 µM (inactive)	> 100 µM (inactive)	> 100 µM (inactive)	> 100 µM (inactive)	> 100 µM (inactive)	> 100 µM (inactive)	> 100 µM (inactive)	> 100 µM (inactive)	> 100 µM (inactive)	> 100 µM (inactive)	–	> 100 µM (inactive)	> 100 µM	> 100 µM (inactive)	> 100 µM (inactive)
C=C1[C@@H]2CCC(C)(C)[C@H]1CCC(=O)[C@@H]2C(=O)OC	> 100 µM (inactive)	> 100 µM (inactive)	> 100 µM (inactive)	> 100 µM (inactive)	> 100 µM (inactive)	> 100 µM (inactive)	> 100 µM (inactive)	> 100 µM (inactive)	> 100 µM (inactive)	> 100 µM (inactive)	–	–	> 100 µM (inactive)	–	> 100 µM (inactive)	> 100 µM	> 100 µM (inactive)	> 100 µM (inactive)
C=CCCCN1CCCCC1=S	> 100 µM (inactive)	> 100 µM (inactive)	> 100 µM (inactive)	> 100 µM (inactive)	> 100 µM (inactive)	> 100 µM (inactive)	> 100 µM (inactive)	> 100 µM (inactive)	> 100 µM (inactive)	> 100 µM (inactive)	63.4 µM (inactive)	36.5 µM (inactive)	> 100 µM (inactive)	–	> 100 µM (inactive)	> 100 µM	> 100 µM (inactive)	> 100 µM (inactive)
CCC(=O)CC(=O)CCC(=O)Nc1cc(C)ccc1C	> 100 µM (inactive)	> 100 µM (inactive)	> 100 µM (inactive)	> 100 µM (inactive)	> 100 µM (inactive)	> 100 µM (inactive)	–	> 100 µM (inactive)	> 100 µM (inactive)	> 100 µM (inactive)	> 100 µM (inactive)	> 100 µM (inactive)	> 100 µM (inactive)	–	–	> 100 µM	> 100 µM (inactive)	> 100 µM (inactive)
O=C(O)C(CO)NC(=O)n1c2ccccc2c2ccccc21 (centres undefined)	> 100 µM (inactive)	> 100 µM (inactive)	> 100 µM (inactive)	> 100 µM (inactive)	–	> 100 µM (inactive)	–	> 100 µM (inactive)	> 100 µM (inactive)	> 100 µM (inactive)	> 100 µM (inactive)	–	–	> 100 µM (inactive)	> 100 µM (inactive)	> 100 µM	> 100 µM (inactive)	> 100 µM (inactive)
c1ccc2c(c1)CCc1cc3cc4c(nc3nc1-2)-c1ccccc1CC4	> 100 µM (inactive)	> 100 µM (inactive)	> 100 µM (inactive)	> 100 µM (inactive)	> 100 µM (inactive)	> 100 µM (inactive)	–	69.7 µM (inactive)	> 100 µM (inactive)	–	> 100 µM (inactive)	> 100 µM (inactive)	> 100 µM (inactive)	–	> 100 µM (inactive)	> 100 µM	> 100 µM (inactive)	> 100 µM (inactive)
Cc1cc(Cl)ccc1NC(=O)C1C(=O)N(c2ccc(Cl)cc2C)C(=O)/C1=N\NC(N)=S (centres undefined)	35.4 µM (inactive)	36.2 µM (inactive)	22.5 µM (inactive)	–	28.2 µM (inactive)	31.6 µM (inactive)	18.5 µM (inactive)	16 µM (inactive)	> 10 µM (inactive)	32.7 µM (inactive)	–	–	19.6 µM (inactive)	–	20.8 µM (inactive)	17.1 µM	18.7 µM (inactive)	27.4 µM (inactive)
O=C(Nc1cc(Cl)ccc1Cl)c1cc2cccc(Cl)c2oc1=O	> 100 µM (inactive)	> 100 µM (inactive)	> 100 µM (inactive)	> 100 µM (inactive)	> 100 µM (inactive)	> 100 µM (inactive)	–	> 100 µM (inactive)	> 100 µM (inactive)	> 100 µM (inactive)	> 100 µM (inactive)	37.1 µM (inactive)	> 100 µM (inactive)	–	–	> 100 µM	> 100 µM (inactive)	> 100 µM (inactive)
CC(=O)NC1=C(N)C(=O)c2ccccc2C1=O	44.4 µM (inactive)	> 100 µM (inactive)	47.1 µM (inactive)	15.3 µM (inactive)	43.6 µM (inactive)	20 µM (inactive)	–	46.9 µM (inactive)	–	30.6 µM (inactive)	> 100 µM (inactive)	> 100 µM (inactive)	56.5 µM (inactive)	> 100 µM (inactive)	> 100 µM (inactive)	47.6 µM	21.3 µM (inactive)	54.7 µM (inactive)
C/C(=N\NS(=O)(=O)c1ccc(C)cc1)c1cc2ccccc2n1C	> 100 µM (inactive)	> 100 µM (inactive)	> 100 µM (inactive)	> 100 µM (inactive)	> 100 µM (inactive)	> 100 µM (inactive)	> 100 µM (inactive)	–	–	> 100 µM (inactive)	–	59.2 µM (inactive)	63.8 µM (inactive)	–	> 100 µM (inactive)	> 100 µM	> 100 µM (inactive)	24.2 µM (inactive)
CCCCCCCCCCCCCCCCOCC(CP(=O)([O-])OCC[n+]1ccccc1)OC (centres undefined)	10.6 µM (inactive)	–	8.2 µM (inactive)	–	5.6 µM (inactive)	–	11.4 µM (inactive)	–	17 µM (inactive)	14.1 µM (inactive)	17.7 µM (inactive)	8.45 µM (inactive)	–	10.4 µM (inactive)	2.45 µM (inactive)	–	17.8 µM (inactive)	11.4 µM (inactive)
CCOC(C)C(/C=N/NC(N)=S)=NNC(N)=S (centres undefined) [GLOXAZONE]	> 100 µM (inactive)	> 100 µM (inactive)	< 0.0208 µM (active)	> 100 µM (inactive)	–	> 100 µM (inactive)	> 100 µM (inactive)	–	> 74.1 µM (inactive)	48.3 µM (inactive)	> 100 µM (inactive)	40.3 µM (inactive)	1.07 µM (active)	> 100 µM (inactive)	> 100 µM (inactive)	> 100 µM	92.3 µM (inactive)	> 100 µM (inactive)
